Experimental data: patent publication US10226041B2, “Compositions and methods for improving the quality of processed sperm” (Inguran, LLC, priority 2011, dated 2019)

Test system: sex-sorted sperm cells
Experiment: CASA post-thaw motility of sex sorted bull sperm treated with OSR
Assay type: cell-based, bovine
Conditions: 3 hr; 1 step-stain (+−−); Bull C (Jersey), Trial 2

With vitamin B12 the “% Motility” value was 37%.
